Data from PubChem BioAssay (NCI).
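Growth conditions: 96-well plates. Treatment: test compound, 48 hours, 5 concentrations. Analysis: linear interpolation between bracketing concentrations; unreached endpoints set to highest concentration. At the TGI there is no net growth.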

Columns and labels:
Test in all cases: growth of human tumour cells (NCI), 48 h
HL-60(TB) leukemia = system: HL-60(TB) leukemia
RXF 393 renal = system: RXF 393 renal
NCI/ADR-RES ovarian = system: NCI/ADR-RES ovarian
SK-MEL-2 melanoma = system: SK-MEL-2 melanoma
PC-3 prostate = system: PC-3 prostate
SK-OV-3 ovarian = system: SK-OV-3 ovarian
A498 renal = system: A498 renal
OVCAR-4 ovarian = system: OVCAR-4 ovarian
SF-295 CNS = system: SF-295 CNS
CCRF-CEM leukemia = system: CCRF-CEM leukemia
MDA-N = system: MDA-N
SF-539 CNS = system: SF-539 CNS
UACC-257 melanoma = system: UACC-257 melanoma
TK-10 renal = system: TK-10 renal
MDA-MB-231 breast = system: MDA-MB-231 breast
SW-620 colon = system: SW-620 colon
DU-145 prostate = system: DU-145 prostate
HCT-116 colon = system: HCT-116 colon
LOX IMVI melanoma = system: LOX IMVI melanoma
OVCAR-3 ovarian = system: OVCAR-3 ovarian

SMILES | TGI (HL-60(TB) leukemia) [µM] | TGI (RXF 393 renal) [µM] | TGI (NCI/ADR-RES ovarian) [µM] | TGI (SK-MEL-2 melanoma) [µM] | TGI (PC-3 prostate) [µM] | TGI (SK-OV-3 ovarian) [µM] | TGI (A498 renal) [µM] | TGI (OVCAR-4 ovarian) [µM] | TGI (SF-295 CNS) [µM] | TGI (CCRF-CEM leukemia) [µM] | TGI (MDA-N) [µM] | TGI (SF-539 CNS) [µM] | TGI (UACC-257 melanoma) [µM] | TGI (TK-10 renal) [µM] | TGI (MDA-MB-231 breast) [µM] | TGI (SW-620 colon) [µM] | TGI (DU-145 prostate) [µM] | TGI (HCT-116 colon) [µM] | TGI (LOX IMVI melanoma) [µM] | TGI (OVCAR-3 ovarian) [µM]
COC(=O)/C=C1/OC(c2ccc(Br)cc2)=C(Br)C1=O | 7.87 | 11.1 | 32.9 | 24.8 | 17.5 | 38.2 | 30.4 | 11.6 | 28.9 | 6.22 | 12.6 | 12.7 | 27.5 | 17.6 | 8.17 | 7.49 | 25.4 | 7.75 | 8.4 | 9.71
COc1cc(O)c2c(=O)c3ccccc3n(C)c2c1 | > 100 | 51.4 | > 100 | > 100 | > 100 | > 100 | > 100 | > 100 | > 100 | > 100 | > 100 | > 100 | > 100 | > 100 | > 100 | > 100 | > 100 | > 100 | > 100 | > 100
CSc1nc(C)cc(N(C)c2ccccc2)n1 | 61.9 | > 100 | 63.6 | > 100 | > 100 | > 100 | > 100 | > 100 | > 100 | > 100 | 61.3 | 66 | 84 | 98.9 | 87.3 | > 100 | > 100 | > 100 | > 100 | 97.3
CCC(C#N)N(Cc1ccc(CN(C(=O)c2ccccc2)C(C#N)CC)cc1)C(=O)c1ccccc1 (stereo not given) | 84.1 | > 100 | > 100 | 56.8 | > 100 | > 100 | 65 | 80.9 | > 100 | 51.1 | > 100 | 48.6 | 49 | 74.4 | 85.2 | 93 | > 100 | 96.8 | 31.4 | 48.2
Cc1cc2c(cc1C)C(=O)c1ncccc1C2=O | 30.6 | > 100 | 70.8 | > 100 | > 100 | > 100 | > 100 | > 100 | > 100 | > 100 | 36.2 | 90 | 46.3 | > 100 | 67.1 | > 100 | > 100 | 61.1 | > 100 | 9.65
